Source: the NIST ThermoML archive (doi:10.1016/j.fluid.2014.11.020)
± gives the expanded uncertainty stated by the source.

Assay: activity coefficient (dimensionless); of the first substance listed, at infinite dilution; xn = mol fraction of the nth substance listed
Details: Liquid, Chromatography, x1 = 0

Compound	activity coefficient (323.15 K)	activity coefficient (333.15 K)	activity coefficient (343.15 K)
CC(C)CC(C)(C)C [2,2,4-trimethylpentane] + CCCCCCCCn1cc[n+](COCCCOC[n+]2ccn(CCCCCCCC)c2C)c1C.N#C[N-]C#N.N#C[N-]C#N	11.4 ± 0.78	10.5 ± 0.72	9.74 ± 0.66
CC(C)CC(C)(C)C [2,2,4-trimethylpentane] + CN(C)c1cc[n+](COCCCOC[n+]2ccc(N(C)C)cc2)cc1.O=S(=O)([N-]S(=O)(=O)C(F)(F)F)C(F)(F)F.O=S(=O)([N-]S(=O)(=O)C(F)(F)F)C(F)(F)F	31.7 ± 2.2	25.2 ± 1.7	25.4 ± 1.7
CC(C)CO [2-methyl-1-propanol] + CCCCCCCCn1cc[n+](COCCC)c1C.O=S(=O)([N-]S(=O)(=O)C(F)(F)F)C(F)(F)F	1.21 ± 0.08	1.09 ± 0.07	1.03 ± 0.06
CC(C)CO [2-methyl-1-propanol] + CCCCCCCCn1cc[n+](COCCCOC[n+]2ccn(CCCCCCCC)c2C)c1C.N#C[N-]C#N.N#C[N-]C#N	0.36 ± 0.03	0.36 ± 0.03	0.35 ± 0.03
CC(C)CO [2-methyl-1-propanol] + CCCCCCCCn1cc[n+](COCCCOC[n+]2ccn(CCCCCCCC)c2C)c1C.O=S(=O)([N-]S(=O)(=O)C(F)(F)F)C(F)(F)F.O=S(=O)([N-]S(=O)(=O)C(F)(F)F)C(F)(F)F	0.8 ± 0.05	0.72 ± 0.05	0.67 ± 0.05
CC(C)CO [2-methyl-1-propanol] + CCCOC[n+]1ccc(N(C)C)cc1.O=S(=O)([N-]S(=O)(=O)C(F)(F)F)C(F)(F)F	2.03 ± 0.14	1.92 ± 0.13	1.73 ± 0.12
CC(C)CO [2-methyl-1-propanol] + CCCOC[n+]1ccn(C)c1.F[B-](F)(F)F	4.35 ± 0.3	3.95 ± 0.27	3.56 ± 0.24
CC(C)CO [2-methyl-1-propanol] + CCCOC[n+]1ccn(C)c1.N#C[N-]C#N	1.29 ± 0.08	1.25 ± 0.08	1.21 ± 0.08
CC(C)CO [2-methyl-1-propanol] + CCCOC[n+]1ccn(C)c1.O=S(=O)([N-]S(=O)(=O)C(F)(F)F)C(F)(F)F	2.18 ± 0.15	1.93 ± 0.13	1.76 ± 0.12
CC(C)CO [2-methyl-1-propanol] + CCCOC[n+]1ccn(Cc2ccccc2)c1.F[B-](F)(F)F	2.86 ± 0.19	2.53 ± 0.17	2.34 ± 0.16
CC(C)CO [2-methyl-1-propanol] + CCCOC[n+]1ccn(Cc2ccccc2)c1.N#C[N-]C#N	0.9 ± 0.06	0.86 ± 0.06	–
CC(C)CO [2-methyl-1-propanol] + CN(C)c1cc[n+](COCCCOC[n+]2ccc(N(C)C)cc2)cc1.O=S(=O)([N-]S(=O)(=O)C(F)(F)F)C(F)(F)F.O=S(=O)([N-]S(=O)(=O)C(F)(F)F)C(F)(F)F	1.85 ± 0.12	1.66 ± 0.11	1.5 ± 0.1
CC(C)CO [2-methyl-1-propanol] + Cn1cc[n+](COCCCOC[n+]2ccn(C)c2)c1.N#C[N-]C#N.N#C[N-]C#N	1.94 ± 0.13	1.81 ± 0.12	1.73 ± 0.12
CC(C)CO [2-methyl-1-propanol] + Cn1cc[n+](COCCCOC[n+]2ccn(C)c2)c1.O=S(=O)([N-]S(=O)(=O)C(F)(F)F)C(F)(F)F.O=S(=O)([N-]S(=O)(=O)C(F)(F)F)C(F)(F)F	1.87 ± 0.13	1.71 ± 0.11	1.5 ± 0.1
CC(C)CO [2-methyl-1-propanol] + N#C[N-]C#N.N#C[N-]C#N.c1ccc(Cn2cc[n+](COCCCOC[n+]3ccn(Cc4ccccc4)c3)c2)cc1	1.79 ± 0.12	1.67 ± 0.11	1.61 ± 0.11
CCC(C)CC [3-methylpentane] + CCCCCCCCn1cc[n+](COCCC)c1C.N#C[N-]C#N	6.65 ± 0.45	5.7 ± 0.39	6.25 ± 0.43
CCC(C)CC [3-methylpentane] + CCCCCCCCn1cc[n+](COCCC)c1C.O=S(=O)([N-]S(=O)(=O)C(F)(F)F)C(F)(F)F	3.57 ± 0.24	3.42 ± 0.23	3.05 ± 0.21
CCC(C)CC [3-methylpentane] + CCCCCCCCn1cc[n+](COCCCOC[n+]2ccn(CCCCCCCC)c2C)c1C.N#C[N-]C#N.N#C[N-]C#N	3.48 ± 0.24	–	–
CCC(C)CC [3-methylpentane] + CCCCCCCCn1cc[n+](COCCCOC[n+]2ccn(CCCCCCCC)c2C)c1C.O=S(=O)([N-]S(=O)(=O)C(F)(F)F)C(F)(F)F.O=S(=O)([N-]S(=O)(=O)C(F)(F)F)C(F)(F)F	3.59 ± 0.24	3.36 ± 0.23	3.13 ± 0.21
CCC(C)CC [3-methylpentane] + CCCOC[n+]1ccc(N(C)C)cc1.O=S(=O)([N-]S(=O)(=O)C(F)(F)F)C(F)(F)F	9.61 ± 0.66	9.48 ± 0.65	9.24 ± 0.63
CCC(C)CC [3-methylpentane] + CCCOC[n+]1ccn(C)c1.O=S(=O)([N-]S(=O)(=O)C(F)(F)F)C(F)(F)F	14.4 ± 0.98	10.8 ± 0.74	–
CCC(C)CC [3-methylpentane] + CCCOC[n+]1ccn(Cc2ccccc2)c1.N#C[N-]C#N	28.5 ± 1.9	–	–

Compound	activity coefficient (323.15 K)	activity coefficient (333.15 K)	activity coefficient (343.15 K)
CCC(C)CC [3-methylpentane] + CCCOC[n+]1ccn(Cc2ccccc2)c1.O=S(=O)([N-]S(=O)(=O)C(F)(F)F)C(F)(F)F	8.01 ± 0.55	6.59 ± 0.45	5.91 ± 0.4
CCC(C)CC [3-methylpentane] + Cn1cc[n+](COCCCOC[n+]2ccn(C)c2)c1.O=S(=O)([N-]S(=O)(=O)C(F)(F)F)C(F)(F)F.O=S(=O)([N-]S(=O)(=O)C(F)(F)F)C(F)(F)F	39.2 ± 2.7	14.4 ± 1	–
CC#N [acetonitrile] + CCCCCCCCn1cc[n+](COCCC)c1C.N#C[N-]C#N	0.72 ± 0.05	0.7 ± 0.05	0.69 ± 0.05
CC#N [acetonitrile] + CCCCCCCCn1cc[n+](COCCC)c1C.O=S(=O)([N-]S(=O)(=O)C(F)(F)F)C(F)(F)F	0.48 ± 0.04	0.46 ± 0.04	0.47 ± 0.04
CC#N [acetonitrile] + CCCCCCCCn1cc[n+](COCCCOC[n+]2ccn(CCCCCCCC)c2C)c1C.N#C[N-]C#N.N#C[N-]C#N	0.46 ± 0.04	0.46 ± 0.04	0.45 ± 0.04
CC#N [acetonitrile] + CCCCCCCCn1cc[n+](COCCCOC[n+]2ccn(CCCCCCCC)c2C)c1C.O=S(=O)([N-]S(=O)(=O)C(F)(F)F)C(F)(F)F.O=S(=O)([N-]S(=O)(=O)C(F)(F)F)C(F)(F)F	0.26 ± 0.03	0.25 ± 0.03	0.25 ± 0.03
CC#N [acetonitrile] + CCCOC[n+]1ccc(N(C)C)cc1.O=S(=O)([N-]S(=O)(=O)C(F)(F)F)C(F)(F)F	0.51 ± 0.04	0.52 ± 0.04	0.52 ± 0.04
CC#N [acetonitrile] + CCCOC[n+]1ccn(C)c1.F[B-](F)(F)F	0.73 ± 0.05	0.74 ± 0.05	0.75 ± 0.05
CC#N [acetonitrile] + CCCOC[n+]1ccn(C)c1.N#C[N-]C#N	0.77 ± 0.05	0.78 ± 0.05	1.09 ± 0.07
CC#N [acetonitrile] + CCCOC[n+]1ccn(C)c1.O=S(=O)([N-]S(=O)(=O)C(F)(F)F)C(F)(F)F	0.46 ± 0.04	0.46 ± 0.04	0.46 ± 0.04
CC#N [acetonitrile] + CCCOC[n+]1ccn(Cc2ccccc2)c1.F[B-](F)(F)F	0.63 ± 0.04	0.63 ± 0.04	0.63 ± 0.04
CC#N [acetonitrile] + CCCOC[n+]1ccn(Cc2ccccc2)c1.N#C[N-]C#N	0.72 ± 0.05	0.76 ± 0.05	0.77 ± 0.05
CC#N [acetonitrile] + CCCOC[n+]1ccn(Cc2ccccc2)c1.O=S(=O)([N-]S(=O)(=O)C(F)(F)F)C(F)(F)F	0.39 ± 0.03	0.34 ± 0.03	0.34 ± 0.03
CC#N [acetonitrile] + CN(C)c1cc[n+](COCCCOC[n+]2ccc(N(C)C)cc2)cc1.O=S(=O)([N-]S(=O)(=O)C(F)(F)F)C(F)(F)F.O=S(=O)([N-]S(=O)(=O)C(F)(F)F)C(F)(F)F	0.37 ± 0.03	0.37 ± 0.03	0.37 ± 0.03
CC#N [acetonitrile] + Cn1cc[n+](COCCCOC[n+]2ccn(C)c2)c1.N#C[N-]C#N.N#C[N-]C#N	0.68 ± 0.05	0.68 ± 0.05	0.69 ± 0.05
CC#N [acetonitrile] + Cn1cc[n+](COCCCOC[n+]2ccn(C)c2)c1.O=S(=O)([N-]S(=O)(=O)C(F)(F)F)C(F)(F)F.O=S(=O)([N-]S(=O)(=O)C(F)(F)F)C(F)(F)F	0.28 ± 0.03	0.28 ± 0.03	0.24 ± 0.03
CC#N [acetonitrile] + N#C[N-]C#N.N#C[N-]C#N.c1ccc(Cn2cc[n+](COCCCOC[n+]3ccn(Cc4ccccc4)c3)c2)cc1	0.99 ± 0.06	0.97 ± 0.06	0.98 ± 0.06
c1ccccc1 [benzene] + CCCCCCCCn1cc[n+](COCCC)c1C.N#C[N-]C#N	1.39 ± 0.09	1.23 ± 0.08	1.07 ± 0.07
c1ccccc1 [benzene] + CCCCCCCCn1cc[n+](COCCC)c1C.O=S(=O)([N-]S(=O)(=O)C(F)(F)F)C(F)(F)F	0.6 ± 0.04	0.59 ± 0.04	0.59 ± 0.04
c1ccccc1 [benzene] + CCCCCCCCn1cc[n+](COCCCOC[n+]2ccn(CCCCCCCC)c2C)c1C.N#C[N-]C#N.N#C[N-]C#N	0.7 ± 0.05	0.71 ± 0.05	0.71 ± 0.05
c1ccccc1 [benzene] + CCCCCCCCn1cc[n+](COCCCOC[n+]2ccn(CCCCCCCC)c2C)c1C.O=S(=O)([N-]S(=O)(=O)C(F)(F)F)C(F)(F)F.O=S(=O)([N-]S(=O)(=O)C(F)(F)F)C(F)(F)F	0.42 ± 0.04	0.41 ± 0.03	0.41 ± 0.03
